Test results reported in patent US10227344B2, “CK2 inhibitors, compositions and methods thereof” (Polaris Pharmaceuticals, Inc., priority 2016, dated 2019).

Assays:
Format in all cases: cell-based
MOLT4 = test: Cancer cell panel, cell viability (resazurin): Leukemia, MOLT4; conditions: 72 hours, labelled drug combined with Example 3
MDA-MB-453 = test: Cancer cell panel, cell viability (resazurin): Breast, MDA-MB-453; conditions: MDA-MB-453 (Breast), 72 hours; labelled drug combined with Example 3
Ramos = test: Cancer cell panel, cell viability (resazurin): Burkitt's Lymphoma, Ramos; conditions: 72 hours, labelled drug combined with Example 3
HCT116 = test: Cancer cell panel, cell viability (resazurin): Colon, HCT116; conditions: 72 hours, labelled drug combined with Example 3
U87MG = test: Cancer cell panel, cell viability (resazurin): Glioblastoma, U87MG; conditions: 72 hours, labelled drug combined with Example 3
LoVo = test: Cancer cell panel, cell viability (resazurin): Colon, LoVo; conditions: 72 hours, labelled drug combined with Example 3
H1975 = test: Cancer cell panel, cell viability (resazurin): NSCLC, H1975; conditions: 72 hours, labelled drug combined with Example 3
T47D = test: Cancer cell panel, cell viability (resazurin): Breast, T47D; conditions: 72 hours, labelled drug combined with Example 3
Procedure: (§1) Cells were plated in 96-well plates and treated for 72 hours with a serially diluted CK2 inhibitor or anti-cancer drug or their combination. The suspension cell lines were treated right after plating, while the adherent cells were allowed to attach overnight prior to the start of the treatment.
(§2) Cell viability was determined by adding resazurin to cell cultures and measuring fluorescence with a plate reader. Relative cell viability was calculated by dividing the cell viability signal from a test sample by that of a non-treated control. […] Bliss Independence and Highest Single Agent models were used to determine if there is synergy, additivity or antagonism between the CK2 inhibitor and an anti-cancer drug.

MDA-MB-157 = test: Cancer cell panel, cell viability (resazurin): Breast, MDA-MB-157; conditions: MDA-MB-157 (Breast), 72 hours; labelled drug combined with Example 3
H23 = test: Cancer cell panel, cell viability (resazurin): NSCLC, H23; conditions: 72 hours, labelled drug combined with Example 3
RPMI8226 = test: Cancer cell panel, cell viability (resazurin): multiple myeloma, RPMI8226; conditions: 72 hours, labelled drug combined with Example 3
Procedure: as §1, §2

LnCap = test: Cancer cell panel, cell viability (resazurin): Prostate, LnCap; conditions: 72 hours, labelled drug combined with Example 3
WM-115 = test: Cancer cell panel, cell viability (resazurin): Melanoma, WM-115; conditions: WM-115 (Melanoma), 72 hours; labelled drug combined with Example 3
A2780 = test: Cancer cell panel, cell viability (resazurin): Ovarian, A2780; conditions: 72 hours, labelled drug combined with Example 3
786-O = test: Cancer cell panel, cell viability (resazurin): Renal, 786-O; conditions: 786-O (Renal), 72 hours; labelled drug combined with Example 3
Procedure: as §1, §2

EOL-1 = test: Cancer cell panel, cell viability (resazurin): Leukemia, EOL-1; conditions: EOL-1 (Leukemia), 72 hours; labelled drug combined with Example 3
Raji = test: Cancer cell panel, cell viability (resazurin): Burkitt's Lymphoma, Raji; conditions: 72 hours, labelled drug combined with Example 3
Procedure: as §1, §2

DLD-1 = test: Cancer cell panel, cell viability (resazurin): Colon, DLD-1; conditions: DLD-1 (Colon), 72 hours; labelled drug combined with Example 3
MDA-MB-231 = test: Cancer cell panel, cell viability (resazurin): Breast, MDA-MB-231; conditions: MDA-MB-231 (Breast), 72 hours; labelled drug combined with Example 3
Caki-1 = test: Cancer cell panel, cell viability (resazurin): Renal, Caki-1; conditions: Caki-1 (Renal), 72 hours; labelled drug combined with Example 3
BT-474 = test: Cancer cell panel, cell viability (resazurin): Breast, BT-474; conditions: BT-474 (Breast), 72 hours; labelled drug combined with Example 3
Procedure: as §1, §2

U266 = test: Cancer cell panel, cell viability (resazurin): multiple myeloma, U266; conditions: 72 hours, labelled drug combined with Example 3
Procedure: as §1, §2

H2122 = test: Cancer cell panel, cell viability (resazurin): NSCLC, H2122; conditions: 72 hours, labelled drug combined with Example 3
HL60 = test: Cancer cell panel, cell viability (resazurin): Leukemia, HL60; conditions: 72 hours, labelled drug combined with Example 3
SK-MEL-24 = test: Cancer cell panel, cell viability (resazurin): Melanoma, SK-MEL-24; conditions: SK-MEL-24 (Melanoma), 72 hours; labelled drug combined with Example 3
MeWO = test: Cancer cell panel, cell viability (resazurin): Melanoma, MeWO; conditions: 72 hours, labelled drug combined with Example 3
Caov-3 = test: Cancer cell panel, cell viability (resazurin): Ovarian, Caov-3; conditions: Caov-3 (Ovarian), 72 hours; labelled drug combined with Example 3
ACHN = test: Cancer cell panel, cell viability (resazurin): Renal, ACHN; conditions: 72 hours, labelled drug combined with Example 3
Procedure: as §1, §2

H460 = test: Cancer cell panel, cell viability (resazurin): NSCLC, H460; conditions: 72 hours, labelled drug combined with Example 3

O=c1[nH]cc(F)c(=O)[nH]1 [Example 5FU, 5-FU]
synergy, additivity or antagonism of the combination of Example 3 with the anti-cancer drug (MOLT4): + + (Slight synergy relative to each agent alone (CI = 0.75-0.9 by Bliss Independence Model))
synergy, additivity or antagonism of the combination of Example 3 with the anti-cancer drug (MDA-MB-453): + (Additive relative to each agent alone (CI = 0.9-1 by Bliss Independence Model and <0.9 by Highest Single Agent Model))
synergy, additivity or antagonism of the combination of Example 3 with the anti-cancer drug (Ramos): + + (Slight synergy relative to each agent alone (CI = 0.75-0.9 by Bliss Independence Model))
synergy, additivity or antagonism of the combination of Example 3 with the anti-cancer drug (HCT116): + + (Slight synergy relative to each agent alone (CI = 0.75-0.9 by Bliss Independence Model))
synergy, additivity or antagonism of the combination of Example 3 with the anti-cancer drug (U87MG): + (Additive relative to each agent alone (CI = 0.9-1 by Bliss Independence Model and <0.9 by Highest Single Agent Model))
synergy, additivity or antagonism of the combination of Example 3 with the anti-cancer drug (LoVo): + (Additive relative to each agent alone (CI = 0.9-1 by Bliss Independence Model and <0.9 by Highest Single Agent Model))
synergy, additivity or antagonism of the combination of Example 3 with the anti-cancer drug (H1975): − − (Antagonistic relative to each agent alone (CI = 1.2-1.49 by Highest Single Agent Model))
synergy, additivity or antagonism of the combination of Example 3 with the anti-cancer drug (T47D): + (Additive relative to each agent alone (CI = 0.9-1 by Bliss Independence Model and <0.9 by Highest Single Agent Model))
synergy, additivity or antagonism of the combination of Example 3 with the anti-cancer drug (MDA-MB-157): + + (Slight synergy relative to each agent alone (CI = 0.75-0.9 by Bliss Independence Model))
synergy, additivity or antagonism of the combination of Example 3 with the anti-cancer drug (H23): + (Additive relative to each agent alone (CI = 0.9-1 by Bliss Independence Model and <0.9 by Highest Single Agent Model))
synergy, additivity or antagonism of the combination of Example 3 with the anti-cancer drug (RPMI8226): + (Additive relative to each agent alone (CI = 0.9-1 by Bliss Independence Model and <0.9 by Highest Single Agent Model))
synergy, additivity or antagonism of the combination of Example 3 with the anti-cancer drug (LnCap): + (Additive relative to each agent alone (CI = 0.9-1 by Bliss Independence Model and <0.9 by Highest Single Agent Model))
synergy, additivity or antagonism of the combination of Example 3 with the anti-cancer drug (WM-115): + (Additive relative to each agent alone (CI = 0.9-1 by Bliss Independence Model and <0.9 by Highest Single Agent Model))
synergy, additivity or antagonism of the combination of Example 3 with the anti-cancer drug (A2780): + + (Slight synergy relative to each agent alone (CI = 0.75-0.9 by Bliss Independence Model))
synergy, additivity or antagonism of the combination of Example 3 with the anti-cancer drug (786-O): + + + (Synergy relative to each agent alone (CI = 0.4-0.74 by Bliss Independence Model))
synergy, additivity or antagonism of the combination of Example 3 with the anti-cancer drug (EOL-1): + (Additive relative to each agent alone (CI = 0.9-1 by Bliss Independence Model and <0.9 by Highest Single Agent Model))
synergy, additivity or antagonism of the combination of Example 3 with the anti-cancer drug (Raji): + (Additive relative to each agent alone (CI = 0.9-1 by Bliss Independence Model and <0.9 by Highest Single Agent Model))
synergy, additivity or antagonism of the combination of Example 3 with the anti-cancer drug (DLD-1): + (Additive relative to each agent alone (CI = 0.9-1 by Bliss Independence Model and <0.9 by Highest Single Agent Model))
synergy, additivity or antagonism of the combination of Example 3 with the anti-cancer drug (MDA-MB-231): + (Additive relative to each agent alone (CI = 0.9-1 by Bliss Independence Model and <0.9 by Highest Single Agent Model))
synergy, additivity or antagonism of the combination of Example 3 with the anti-cancer drug (Caki-1): + (Additive relative to each agent alone (CI = 0.9-1 by Bliss Independence Model and <0.9 by Highest Single Agent Model))
synergy, additivity or antagonism of the combination of Example 3 with the anti-cancer drug (BT-474): + (Additive relative to each agent alone (CI = 0.9-1 by Bliss Independence Model and <0.9 by Highest Single Agent Model))
synergy, additivity or antagonism of the combination of Example 3 with the anti-cancer drug (U266): + (Additive relative to each agent alone (CI = 0.9-1 by Bliss Independence Model and <0.9 by Highest Single Agent Model))
synergy, additivity or antagonism of the combination of Example 3 with the anti-cancer drug (H2122): + (Additive relative to each agent alone (CI = 0.9-1 by Bliss Independence Model and <0.9 by Highest Single Agent Model))
synergy, additivity or antagonism of the combination of Example 3 with the anti-cancer drug (HL60): + (Additive relative to each agent alone (CI = 0.9-1 by Bliss Independence Model and <0.9 by Highest Single Agent Model))
synergy, additivity or antagonism of the combination of Example 3 with the anti-cancer drug (SK-MEL-24): + (Additive relative to each agent alone (CI = 0.9-1 by Bliss Independence Model and <0.9 by Highest Single Agent Model))
synergy, additivity or antagonism of the combination of Example 3 with the anti-cancer drug (MeWO): − (Slightly antagonistic relative to each agent alone (CI = 1.1-1.2 by Highest Single Agent Model))
synergy, additivity or antagonism of the combination of Example 3 with the anti-cancer drug (Caov-3): + (Additive relative to each agent alone (CI = 0.9-1 by Bliss Independence Model and <0.9 by Highest Single Agent Model))
synergy, additivity or antagonism of the combination of Example 3 with the anti-cancer drug (ACHN): + (Additive relative to each agent alone (CI = 0.9-1 by Bliss Independence Model and <0.9 by Highest Single Agent Model))
synergy, additivity or antagonism of the combination of Example 3 with the anti-cancer drug (H460): + + + (Synergy relative to each agent alone (CI = 0.4-0.74 by Bliss Independence Model))
